# Data as given in patent US5075338A (priority 1986, dated 1991).
# Assays:
# [1] = effect exerted on motility, on rats (spontaneous passings in shuttle-box); type: in vivo, rat
# Procedure: II/4. Determination of effect exerted on motility, on rats
# The test is carried out in a Shuttle-box without introducing current and light. The number of spontaneous passings over from side of the box to the other is registered and summarized by the apparatus for an observation period of 30 minutes. The test is carried out on groups comprising […] CFY rats of both sexes weighing […]. The test compound of the Formula I is added prior to the test subcutaneously, together with tetrabenazine and desmethyl-imiprmine (DMI) reference compounds, respectively.
# [2] = system: noradrenaline uptake, nucleus free supernatant of rat cortex; test: 3H-noradrenaline uptake in the nucleus free supernatant of rat cortex; type: biochemical; details: 37° C., 5 minutes
# Procedure: II/7. Determination of ^3 H-noradrenaine uptake in the nucleus free supernatant of rat cortex (in vivo)
# The cortex is homogenized in 0.32M saccharose with a teflon potter, the cell nucleus is sedimented by centrifuging at 0° C. with 1000 g for 20 minutes; the supernatant thus obtained is used for the test. The intake is accomplished in a KrebsHeinseleit solution saturated with carbogen, in a final volume of 1 ml, at a ^3 H-noradrenaline concentration of […]. Pre-incubation and incubation are carried out at 37° C. for 5 minutes each. The reaction is stopped by adding 4 ml of ice-cold Krebs solution and the tissue is separated by GF/B filtration. Non-specific uptake is determined by using 10^-4 M nisoxetine at 37° C. The radioactivity of the GF/B filter-paper is determined by liquid scintillation measurement in a toluene-PPO-POPOPtritone mixture.
# [3] = system: rabbit pulmonary artery, tyramine-induced noradrenaline release; details: for IC50: read-out: IC50, inhibition of noradrenaline releasing effect of tyramine
# in vivo = details: rat
# [4] = psychostimulant effect in rats: shuttle-box test; type: in vivo, rat
# [5] = effect exerted on food intake, in rats; type: in vivo, rat; details: 5 mg/kg, first hour
# [6] = system: tetrabenazine-induced depression; test: antagonism of tetrabenazine-induced depression in learning test: shuttle-box test; type: in vivo, rat; details: N = 12
# Excerpt: (§1) II/3 Determination of antagonism of tetrabenazine-induced depression, in learning test, on rats
# Method: B. Knoll, J. Knoll: Pol. J. Pharmacol. Pharm. 34, 17-23 (1982).
# According to this test depression caused by tetrabenazine can be antagonized by the compounds of the Formula I. In Table 3 the numerical values of the series of test carried out by using the compound according to Example 7 are disclosed.
# [7] = system: tetrabenazine-induced depression; test: antagonism of tetrabenazine-induced depression in learning test: jumping test; type: in vivo, rat; details: 5 mg/kg tetrabenazine
# Excerpt: as §1
# a) Jumping test. Method: J. Knoll, B. Knoll: Arzneimittel Forschung 8, 339 (1958), 9, 633 (1959).
# [8] = 10 mg/kg s.c., 30 minutes observation
# [9] = 1st day, tetrabenazine 0.5 mg/kg + 10 mg/kg compound, s.c. daily
# [10] = 2nd day, tetrabenazine 0.5 mg/kg + 10 mg/kg compound, s.c. daily
# [11] = 3rd day, tetrabenazine 0.5 mg/kg + 10 mg/kg compound, s.c. daily
# [12] = 4th day, tetrabenazine 0.5 mg/kg + 10 mg/kg compound, s.c. daily
# [13] = 5th day, tetrabenazine 0.5 mg/kg + 10 mg/kg compound, s.c. daily
# [14] = 1st day, tetrabenazine 0.5 mg/kg s.c. daily
# [15] = 2nd day, tetrabenazine 0.5 mg/kg s.c. daily
# [16] = 3rd day, tetrabenazine 0.5 mg/kg s.c. daily
# [17] = 4th day, tetrabenazine 0.5 mg/kg s.c. daily
# [18] = 5th day, tetrabenazine 0.5 mg/kg s.c. daily
smiles,measurement,setting,value
"CNCCCN1c2ccccc2CCc2ccccc21 [DMI, desmethyl-imiprmine, reference compound]",effect on motility and on tetrabenazine induced depression of motility,[1]; DMI reference,inhibitory by itself rather than antagonistic against tetrabenazine induced depression of motility
same,IC50,[2],1 to 5 nM
"CCCC(Cc1ccccc1)NC(C)C.Cl (stereo not drawn) [Example 1, N-iso-propyl-1-phenyl-2-pentylamine-hydrochloride]",IC50,[3],7470 nM
same,LD50,in vivo; sc,135 mg/kg
"C#CCN(C)[C@H](C)Cc1ccccc1 [Example 1-deprenyl, reference compound]",IC50,[2],7000 nM
"CCCC(Cc1ccccc1)NCCCO (stereo not drawn) [Example 2, N-(3-hydroxypropyl)-1-phenyl-2-pentylamine]",IC50,[3],368 nM
same,LD50,in vivo; iv,50 mg/kg
same,LD50,in vivo; sc,> 200 mg/kg
same,mortality,in vivo; sc,0%
"CCCNC(Cc1ccccc1)c1ccccc1.Cl (stereo not drawn) [Example 3, N-propyl-1,2-diphenyl-ethylamine-hydrochloride]",motility,[1]; [8],do not increase motility
same,IC50,[3],7470 nM
same,LD50,in vivo; sc,75 mg/kg
same,mortality,in vivo; sc,0%
"CCCNC(CCC)Cc1ccccc1 (stereo not drawn) [Example 4, N-propyl-1-phenyl-2-pentylamine]",general motility,[4]; 0.5 mg/kg daily,without signs of increased general motility
same,performance over the control,[4]; 0.5 mg/kg daily,significant increase of performance over the control
same,increase of the intersignal reactions,[4]; 15 mg/kg daily,moderate
same,learning and retention,"[4]; 15 mg/kg daily, complete test-period",increased learning and retentions from the very first day
same,maintenance of acquired performance after termination of treatment,"[4]; 15 mg/kg, one-week learning period, 6 weeks after termination",completely maintain the performance acquired
same,antagonism of motility inhibiting effect of 1 mg/kg of tetrabenazine,[1]; 1 mg/kg s.c.,completely antagonized
same,motility,[1]; [8],do increase motility
same,food intake,[5],decreasing effect being approximately identical with that of about 0.5 mg/kg of amphetamine
same,IC50,[2],50 nM
same,IC50,[3],1220 nM
same,LD50,in vivo; iv,27 mg/kg
same,LD50,in vivo; po,270 mg/kg
same,LD50,in vivo; sc,50 mg/kg
"CCCNC(Cc1ccccc1)Cc1ccccc1.Cl [Example 5, N-propyl-1,3-diphenyl-2-propylamine-hydrochloride]",motility,[1]; [8],do increase motility
same,LD50,in vivo; sc,> 150 mg/kg
same,mortality,in vivo; sc,0%
"COCCNC(C)Cc1ccccc1 (stereo not drawn) [Example 7, N-(2-methoxyethyl)-1-phenyl-2-propyl-amine]",F+ = % of animals showing a conditioned reaction,[6]; [9],34.60%
same,IR = number of intersignal reactions,[6]; [9],10.50
same,f+ = % of animals responding to unconditioned stimulus,[6]; [9],49.80%
same,f- = % of animals which do not respond even to unconditioned stimulus,[6]; [9],16.40%
same,F+ = % of animals showing a conditioned reaction,[6]; [10],62.20%
same,IR = number of intersignal reactions,[6]; [10],14.70
same,f+ = % of animals responding to unconditioned stimulus,[6]; [10],21.00%
same,f- = % of animals which do not respond even to unconditioned stimulus,[6]; [10],16.80%
same,F+ = % of animals showing a conditioned reaction,[6]; [11],69.20%
same,IR = number of intersignal reactions,[6]; [11],21.30
same,f+ = % of animals responding to unconditioned stimulus,[6]; [11],9.80%
same,f- = % of animals which do not respond even to unconditioned stimulus,[6]; [11],21.00%
same,F+ = % of animals showing a conditioned reaction,[6]; [12],64.90%
same,IR = number of intersignal reactions,[6]; [12],14.30
same,f+ = % of animals responding to unconditioned stimulus,[6]; [12],17.70%
same,f- = % of animals which do not respond even to unconditioned stimulus,[6]; [12],17.40%
same,F+ = % of animals showing a conditioned reaction,[6]; [13],76.10%
same,IR = number of intersignal reactions,[6]; [13],16.80
same,f+ = % of animals responding to unconditioned stimulus,[6]; [13],8.50%
same,f- = % of animals which do not respond even to unconditioned stimulus,[6]; [13],15.40%
same,IC50,[3],14100 nM
same,LD50,in vivo; sc,> 200 mg/kg
same,mortality,in vivo; sc,0%
CCNC(CC)Cc1ccccc1 (stereo not drawn) [Example 8],IC50,[3],1890 nM
same,LD50,in vivo; iv,46 mg/kg
same,LD50,in vivo; sc,195 mg/kg
CCC(Cc1ccccc1)NC1CCCCC1 (stereo not drawn) [Example 9],IC50,[3],799 nM
same,LD50,in vivo; sc,160 mg/kg
CCCC(Cc1ccccc1)NC (stereo not drawn) [Example 10],IC50,[3],1800 nM
same,LD50,in vivo; iv,18 mg/kg
same,LD50,in vivo; sc,175 mg/kg
CCCCC(Cc1ccccc1)NCCC (stereo not drawn) [Example 11],motility,[1]; [8],do increase motility
same,food intake,[5],decreasing effect being approximately identical with that of about 0.5 mg/kg of amphetamine
same,IC50,[2],100 nM
same,"IC50, inhibition of noradrenaline releasing effect of tyramine",[3],can not be given
same,LD50,in vivo; sc,110 mg/kg
CCCCC(Cc1ccccc1)NC(C)Cc1ccccc1 (stereo not drawn) [Example 12],IC50,[3],3460 nM
same,LD50,in vivo; iv,16 mg/kg
same,LD50,in vivo; sc,> 25 mg/kg
CCCCCCC(Cc1ccccc1)NCCC (stereo not drawn) [Example 13],IC50,[3],501 nM
same,LD50,in vivo; sc,> 50 mg/kg
same,mortality,in vivo; sc,0%
"COc1cc2c(cc1OC)C1CC(=O)C(CC(C)C)CN1CC2 (stereo not drawn) [tetrabenazine, reference compound]",inhibition of the solid conditioned reflex,[7],completely inhibited
same,F+ = % of animals showing a conditioned reaction,[6]; [14],9.58%
same,IR = number of intersignal reactions,[6]; [14],10.25
same,f+ = % of animals responding to unconditioned stimulus,[6]; [14],31.25%
same,f- = % of animals which do not respond even to unconditioned stimulus,[6]; [14],59.17%
same,F+ = % of animals showing a conditioned reaction,[6]; [15],8.50%
same,IR = number of intersignal reactions,[6]; [15],8.33
same,f+ = % of animals responding to unconditioned stimulus,[6]; [15],30.75%
same,f- = % of animals which do not respond even to unconditioned stimulus,[6]; [15],60.75%
same,F+ = % of animals showing a conditioned reaction,[6]; [16],11.42%
same,IR = number of intersignal reactions,[6]; [16],4.67
same,f+ = % of animals responding to unconditioned stimulus,[6]; [16],15.83%
same,f- = % of animals which do not respond even to unconditioned stimulus,[6]; [16],72.75%
same,F+ = % of animals showing a conditioned reaction,[6]; [17],9.8%
same,IR = number of intersignal reactions,[6]; [17],4.50
same,f+ = % of animals responding to unconditioned stimulus,[6]; [17],17.83%
same,f- = % of animals which do not respond even to unconditioned stimulus,[6]; [17],73.08%
same,F+ = % of animals showing a conditioned reaction,[6]; [18],17.67%
same,IR = number of intersignal reactions,[6]; [18],6.92
same,f+ = % of animals responding to unconditioned stimulus,[6]; [18],12.58%
same,f- = % of animals which do not respond even to unconditioned stimulus,[6]; [18],69.75%
same,motility,[1]; 1 mg/kg tetrabenazine,motility inhibiting effect
